ChEMBL document CHEMBL5042552, “Site-Specific Isopeptide Bond Formation: A Powerful Tool for the Generation of Potent and Nontoxic Antimicrobial Peptides” (J Med Chem, 2022)
Activity calls are given as the source filed them. The rule behind the calls is not given here. Starred links: 1 amine or outer side, 2 acyl side, 3 side chain; linkers in the order of their positions; H or OH if unused. Positions of bridges follow the written chain, without caps; N, C: chain ends. Non-standard residues stand in square brackets, D forms with d. Residues, ends and D or L forms follow the SMILES beside them. Groups on a side chain read outwards from the residue. Chains are numbered I, II in the order given. εLys = N[C@@H](CCCCN[*:1])C(=O)[*:2]

What was measured:
Trypsin = Trypsin (Homo sapiens, UniProt P07477+P07478+P35030); experiment: Stability of compound assessed as trypsin (unknown origin) mediated compound degradation at 100 uM measured after 30 mins by RP-HPLC method; format: ADME, protein assay; settings: 0.5 h
[1] = Stability in human plasma after 2 hrs by RP-HPLC method; format: ADME, cell-free
[2] = Hemolytic activity in human erythrocytes at 2.5 to 80 uM incubated for 1 hr by microplate reader assay; format: toxicity, cell-based; settings: erythrocyte, dose 2.5-80 µM
RAW264.7 [3] = experiment: Cytotoxicity against mouse RAW264.7 cells assessed as reduction in cell viability at 10 to 100 uM incubated for 24 hrs by XTT assay; format: toxicity, cell-based; settings: raw264.7, 24 h, dose 10-100 µM
HEK293 = experiment: Cytotoxicity against HEK293 cells assessed as reduction in cell viability at 10 to 100 uM incubated for 24 hrs by XTT assay; format: toxicity, cell-based; settings: human, hek293, 24 h, dose 10-100 µM
Escherichia coli = experiment: Induction of membrane permeabilization in Escherichia coli at MIC concentration by SYTOX-green staining based flow cytometry method; format: functional
Pseudomonas aeruginosa = experiment: Induction of membrane permeabilization in Pseudomonas aeruginosa at MIC concentration by SYTOX-green staining based flow cytometry method; format: functional
Cell membrane [4] = experiment: Disruption of membrane integrity in Bacillus subtilis at MIC by […] green dye based confocal microscopy analysis
Cell membrane [5] = experiment: Disruption of membrane integrity in Staphylococcus aureus at MIC by […] green dye based confocal microscopy analysis
Staphylococcus aureus = experiment: Induction of membrane permeabilization in Staphylococcus aureus at MIC concentration by SYTOX-green staining based flow cytometry method; format: functional
[6] = Hemolytic activity in human erythrocytes at 12.5 uM incubated for 1 hr by microplate reader assay; format: toxicity, cell-based; settings: erythrocyte
Cell membrane [7] = experiment: Disruption of membrane integrity in Pseudomonas aeruginosa at MIC by […] green dye based confocal microscopy analysis
Bacillus subtilis = experiment: Induction of membrane permeabilization in Bacillus subtilis at MIC concentration by SYTOX-green staining based flow cytometry method; format: functional
Cell membrane [8] = experiment: Disruption of membrane integrity in Escherichia coli at MIC by […] green dye based confocal microscopy analysis
RAW264.7 [9] = experiment: Cytotoxicity against mouse RAW264.7 cells assessed as reduction in cell viability at 100 uM incubated for 24 hrs by XTT assay; format: toxicity, cell-based; settings: raw264.7, 24 h
[10] = Hemolytic activity in human erythrocytes at 80 uM incubated for 1 hr by microplate reader assay; format: toxicity, cell-based; settings: erythrocyte

SMILES: CC(C)C[C@H](NC(=O)[C@H](CC(C)C)NC(=O)[C@H](CCCCN)NC(=O)[C@H](CC(C)C)NC(=O)[C@H](CC(C)C)NC(=O)[C@H](CCCCN)NC(=O)[C@H](CCCCN)NC(=O)[C@H](CC(C)C)NC(=O)[C@H](CC(C)C)NC(=O)[C@H](CCCCN)NC(=O)[C@H](CCCCN)NC(=O)[C@H](CC(C)C)NC(=O)[C@H](CC(C)C)NC(=O)[C@@H](N)CCCCNC(=O)[C@@H](N)CC(C)C)C(N)=O (H-K(Leu)LLKKLLKKLLKLL-NH2)
- Stability (Trypsin): Unstable
- Stability [1]: Stable
- Activity [2]: Non-Toxic
- Activity (RAW264.7 [3]): Toxic
- Activity (HEK293): Toxic

SMILES: CC(C)C[C@H](NC(=O)[C@H](CC(C)C)NC(=O)[C@H](CCCCN)NC(=O)[C@H](CC(C)C)NC(=O)[C@H](CC(C)C)NC(=O)[C@H](CCCCN)NC(=O)[C@H](CCCCN)NC(=O)[C@H](CC(C)C)NC(=O)[C@H](CC(C)C)NC(=O)[C@H](CCCCN)NC(=O)[C@@H](N)CCCCNC(=O)[C@H](CC(C)C)NC(=O)[C@H](CC(C)C)NC(=O)[C@H](CCCCN)NC(=O)[C@@H](N)CC(C)C)C(N)=O (H-K([Leu-Leu-Lys-Leu])KLLKKLLKLL-NH2)
- Stability (Trypsin): Unstable
- Stability [1]: Stable
- Activity [2]: Non-Toxic
- Activity (RAW264.7 [3]): Toxic
- Activity (HEK293): Toxic

SMILES: CC(C)C[C@H](NC(=O)[C@H](CC(C)C)NC(=O)[C@H](CCCCN)NC(=O)[C@H](CC(C)C)NC(=O)[C@H](CC(C)C)NC(=O)[C@H](CCCCN)NC(=O)[C@H](CCCCN)NC(=O)[C@H](CC(C)C)NC(=O)[C@H](CC(C)C)NC(=O)[C@H](CCCCN)NC(=O)[C@H](CCCCN)NC(=O)[C@H](CC(C)C)NC(=O)[C@H](CC(C)C)NC(=O)[C@H](CCCCN)NC(=O)[C@@H](N)CC(C)C)C(N)=O (H-LKLLKKLLKKLLKLL-NH2)
- Activity (Escherichia coli): 98%
- Stability (Trypsin): Unstable
- Activity (Pseudomonas aeruginosa): 98%
- Activity (Cell membrane [4]): inactive
- Stability [1]: Stable
- Activity (Cell membrane [5]): inactive
- Activity (RAW264.7 [3]): Toxic
- Activity (Staphylococcus aureus): 46%
- Activity (HEK293): Toxic
- Activity [6]: Toxic
- Activity (Cell membrane [7]): inactive
- Activity (Bacillus subtilis): 41%
- Activity (Cell membrane [8]): inactive

SMILES: CC(C)C[C@H](NC(=O)[C@H](CC(C)C)NC(=O)[C@@H](N)CCCCNC(=O)[C@H](CC(C)C)NC(=O)[C@H](CC(C)C)NC(=O)[C@H](CCCCN)NC(=O)[C@H](CCCCN)NC(=O)[C@H](CC(C)C)NC(=O)[C@H](CC(C)C)NC(=O)[C@H](CCCCN)NC(=O)[C@H](CCCCN)NC(=O)[C@H](CC(C)C)NC(=O)[C@H](CC(C)C)NC(=O)[C@H](CCCCN)NC(=O)[C@@H](N)CC(C)C)C(N)=O (H-LKLLKKLLKKLL[εLys]LL-NH2)
- Stability (Trypsin): Unstable
- Stability [1]: Stable
- Activity (RAW264.7 [3]): Toxic
- Activity (HEK293): Toxic

SMILES: CC(C)C[C@H](NC(=O)[C@H](CC(C)C)NC(=O)[C@H](CCCCN)NC(=O)[C@H](CC(C)C)NC(=O)[C@H](CC(C)C)NC(=O)[C@@H](N)CCCCNC(=O)[C@H](CCCCN)NC(=O)[C@H](CC(C)C)NC(=O)[C@H](CC(C)C)NC(=O)[C@H](CCCCN)NC(=O)[C@H](CCCCN)NC(=O)[C@H](CC(C)C)NC(=O)[C@H](CC(C)C)NC(=O)[C@H](CCCCN)NC(=O)[C@@H](N)CC(C)C)C(N)=O (H-LKLLKKLLK[εLys]LLKLL-NH2)
- Stability (Trypsin): Unstable
- Activity (RAW264.7 [9]): Non-Toxic
- Stability [1]: Stable
- Activity [2]: Non-Toxic
- Activity [10]: Non-Toxic

SMILES: CC(C)C[C@H](NC(=O)[C@H](CC(C)C)NC(=O)[C@H](CCCCN)NC(=O)[C@H](CC(C)C)NC(=O)[C@H](CC(C)C)NC(=O)[C@H](CCCCN)NC(=O)[C@@H](N)CCCCNC(=O)[C@H](CC(C)C)NC(=O)[C@H](CC(C)C)NC(=O)[C@H](CCCCN)NC(=O)[C@H](CCCCN)NC(=O)[C@H](CC(C)C)NC(=O)[C@H](CC(C)C)NC(=O)[C@H](CCCCN)NC(=O)[C@@H](N)CC(C)C)C(N)=O (H-LKLLKKLL[εLys]KLLKLL-NH2)
- Activity (Escherichia coli): 98%
- Activity (Pseudomonas aeruginosa): 98%
- Activity (Cell membrane [4]): Active
- Activity (RAW264.7 [9]): Non-Toxic
- Stability [1]: Stable
- Activity (Cell membrane [5]): Active
- Activity (Staphylococcus aureus): 89%
- Activity [10]: Non-Toxic
- Activity (Cell membrane [7]): Active
- Activity (Bacillus subtilis): 98%
- Activity (Cell membrane [8]): Active

SMILES: CC(C)C[C@H](NC(=O)[C@H](CC(C)C)NC(=O)[C@H](CCCCN)NC(=O)[C@H](CC(C)C)NC(=O)[C@H](CC(C)C)NC(=O)[C@H](CCCCN)NC(=O)[C@H](CCCCN)NC(=O)[C@H](CC(C)C)NC(=O)[C@H](CC(C)C)NC(=O)[C@@H](N)CCCCNC(=O)[C@H](CCCCN)NC(=O)[C@H](CC(C)C)NC(=O)[C@H](CC(C)C)NC(=O)[C@H](CCCCN)NC(=O)[C@@H](N)CC(C)C)C(N)=O (I: H-KLLKKLLKLL-NH2 / II: H-LKLLK; amide I:1-II:C)
- Stability (Trypsin): Unstable
- Stability [1]: Stable
- Activity [2]: Non-Toxic
- Activity (RAW264.7 [3]): Toxic
- Activity (HEK293): Toxic
